Measured values taken from patent publication US11066711B2, “Biomarkers for predicting Clostridium difficile infection treatment outcome” (Mayo Foundation for Medical Education and Research, priority 2015, dated 2021).

System: Clostridium difficile infection
Assay: Primary CDI treatment outcome in patients with a first CDI episode (clinical cohort)
Type: in vivo, human
Details: 88 patients with first CDI episode; metronidazole versus vancomycin (Table 1)
Text: Patients with a first Clostridium difficile infection (CDI) episode were recruited. Consecutive patient stool samples that led to CDI diagnosis were collected.
Clinical data including demographics, hospitalization, concomitant medications, severity, laboratory parameters, prior and concomitant antibiotic use, initial CDI treatment, treatment response and recurrent CDI were obtained by a review of the electronic medical record.
Treatment failure was defined as non-response to treatment after 5 days of metronidazole treatment or 4 days of vancomycin therapy (Khanna et al., 2012 Am J Gastroenterol 107:89-95; Cohen et al., 2010 Infect Control Hosp Epidemiol 31:431-55; and Surawicz et al., 2013 Am J Gastroenterol 108:478-98). Recurrent CDI was defined as recurrence of diarrhea after complete resolution of symptoms at any time during the treatment or within 56 days of onset with a positive CDI test (Cohen et al., 2010 Infect Control Hosp Epidemiol 31:431-55).
Stool samples were collected from 88 patients (median age 52.7 years, interquartile range 36.9-65.1; 60.2% female) and clinical outcomes were recorded prospectively. The rate of primary non-response following recommended treatment was 12.5%, and was similar between metronidazole and vancomycin (Table 1).

SMILES | rate of primary non-response, comparison between drugs
Cc1ncc([N+](=O)[O-])n1CCO [metronidazole] | similar
CN[C@H](CC(C)C)C(=O)N[C@H]1C(=O)N[C@@H](CC(N)=O)C(=O)N[C@H]2C(=O)N[C@H]3C(=O)N[C@H](C(=O)N[C@H](C(=O)O)c4cc(O)cc(O)c4-c4cc3ccc4O)[C@H](O)c3ccc(c(Cl)c3)Oc3cc2cc(c3O[C@@H]2O[C@H](CO)[C@@H](O)[C@H](O)[C@H]2O[C@H]2C[C@](C)(N)[C@H](O)[C@H](C)O2)Oc2ccc(cc2Cl)[C@H]1O [vancomycin] | similar
